Measurements taken from US10472336B2, “Modulators of indoleamine 2,3-dioxygenase” (GlaxoSmithKline Intellectual Property (No.2) Limited, priority 2015, dated 2019).

Assays:
[1] = biological target: T1, indoleamine 2, 3-dioxygenase (IDO1) (Homo sapiens, UniProt P14902); assay: PBMC IDOi assay (kynurenine detection by mass spectrometry); assay type: cell-based; details: IFN-γ and LPS stimulated human PBMC, 2 days
Protocol: (§1) Compounds of the present invention were tested via high-throughput cellular assays utilizing detection of kynurenine via mass spectrometry and cytotoxicity as end-points. For the mass spectrometry and cytotoxicity assays, human peripheral blood mononuclear cells (PBMC) (PB003F; AllCells®, Alameda, Calif.) were stimulated with human interferon-γ (IFN-γ) (Sigma-Aldrich Corporation, St. Louis, Mo.) and lipopolysaccharide from Salmonella minnesota (LPS) (Invivogen, San Diego, Calif.) to induce the expression of indoleamine 2, 3-dioxygenase (IDO1). Compounds with IDO1 inhibitory properties decreased the amount of kynurenine produced by the cells via the tryptophan catabolic pathway. Cellular toxicity due to the effect of compound treatment was measured using CellTiter-Glo® reagent (CTG) (Promega Corporation, Madison, Wis.), which is based on luminescent detection of ATP, an indicator of metabolically active cells.
(§2) In preparation for the assays, test compounds were serially diluted 3-fold in DMSO from a typical top concentration of 5 mM and plated at 0.5 μL in 384-well, polystyrene, clear bottom, tissue culture treated plates with lids (Greiner Bio-One, Kremsmünster, Austria) to generate 11-point dose response curves. Low control wells (0% kynurenine or 100% cytotoxicity) contained either 0.5 μL of DMSO in the presence of unstimulated (−IFN-γ/−LPS) PBMCs for the mass spectrometry assay or 0.5 μL of DMSO in the absence of cells for the cytotoxicity assay, and high control wells (100% kynurenine or 0% cytotoxicity) contained 0.5 μL of DMSO in the presence of stimulated (+IFN-γ/+LPS) PBMCs for both the mass spectrometry and cytotoxicity assays.
Frozen stocks of PBMCs were washed and recovered in RPMI 1640 medium (Thermo Fisher Scientific, Inc., Waltham, Mass.) supplemented with 10% v/v heat-inactivated fetal bovine serum (FBS) (Thermo Fisher Scientific, Inc., Waltham, Mass.), and 1× penicillin-streptomycin antibiotic solution (Thermo Fisher Scientific, Inc., Waltham, Mass.). The cells were diluted to 1,000,000 cells/mL in the supplemented RPMI 1640 medium. 50 μL of either the cell suspension, for the mass spectrometry assay, or medium alone, for the cytotoxicity assay, were added to the low control wells, on the previously prepared 384-well compound plates, resulting in 50,000 cells/well or 0 cells/well respectively. IFN-γ and LPS were added to the remaining cell suspension at final concentrations of 100 ng/ml and 50 ng/ml respectively, and 50 μL of the stimulated cells were added to all remaining wells on the 384-well compound plates. The plates, with lids, were then placed in a 37° C., 5% CO2 humidified incubator for 2 days.
(§3) Following incubation, the 384-well plates were removed from the incubator and allowed to equilibrate to room temperature for 30 minutes. For the cytotoxicity assay, CellTiter-Glo® was prepared according to the manufacturer's instructions, and 40 μL were added to each plate well. After a twenty minute incubation at room temperature, luminescence was read on an EnVision® Multilabel Reader (PerkinElmer Inc., Waltham, Mass.). For the mass spectrometry assay, 10 μL of supernatant from each well of the compound-treated plates were added to 40 μL of acetonitrile, containing 10 μM of an internal standard for normalization, in 384-well, polypropylene, V-bottom plates (Greiner Bio-One, Kremsmünster, Austria) to extract the organic analytes. Following centrifugation at 2000 rpm for 10 minutes, 10 μL from each well of the acetonitrile extraction plates were added to 90 μL of sterile, distilled H2O in 384-well, polypropylene, V-bottom plates for analysis of kynurenine and the internal standard on the RapidFire 300 (Agilent Technologies, Santa Clara, Calif.) and 4000 QTRAP MS (SCIEX, Framingham, Mass.). MS data were integrated using Agilent Technologies' RapidFire Integrator software, and data were normalized for analysis as a ratio of kynurenine to the internal standard. […]

[2] = biological target: T1, indoleamine 2, 3-dioxygenase (IDO1); assay: HeLa IDOi assay (kynurenine detection by mass spectrometry); assay type: cell-based; set-up: human epithelial HeLa cells (CCL-2; host or cells: HeLa cells stimulated with human IFN-γ; details: IFN-γ stimulated human epithelial HeLa cells, 2 days
Protocol: as §1, with “epithelial HeLa” for “peripheral blood mononuclear”, “(CCL-2; ATCC®, Manassas, Va.)” for “(PBMC) (PB003F; AllCells®, Alameda, Calif.)”, “Mo.)” for “Mo.) and lipopolysaccharide from Salmonella minnesota (LPS) (Invivogen, San Diego, Calif.)”
as §2, with “(−IFN-γ) HeLa cells” for “(−IFN-γ/−LPS) PBMCs”, “(+IFN-γ) HeLa cells” for “(+IFN-γ/+LPS) PBMCs”
Frozen stocks of HeLa cells were washed and recovered in DMEM high glucose medium with HEPES (Thermo Fisher Scientific, Inc., Waltham, Mass.) supplemented with 10% v/v certified fetal bovine serum (FBS) (Thermo Fisher Scientific, Inc., Waltham, Mass.), and 1× penicillin-streptomycin antibiotic solution (Thermo Fisher Scientific, Inc., Waltham, Mass.). The cells were diluted to 100,000 cells/mL in the supplemented DMEM medium. 50 μL of either the cell suspension, for the mass spectrometry assay, or medium alone, for the cytotoxicity assay, were added to the low control wells, on the previously prepared 384-well compound plates, resulting in 5,000 cells/well or 0 cells/well respectively. IFN-γ was added to the remaining cell suspension at a final concentration of 10 nM, and 50 μL of the stimulated cells were added to all remaining wells on the 384-well compound plates. The plates, with lids, were then placed in a 37° C., 5% CO2 humidified incubator for 2 days.
as §3, with “instructions, and 10 μL were” for “instructions, and 40 μL were”

T1 sequence (P14902 whole entry): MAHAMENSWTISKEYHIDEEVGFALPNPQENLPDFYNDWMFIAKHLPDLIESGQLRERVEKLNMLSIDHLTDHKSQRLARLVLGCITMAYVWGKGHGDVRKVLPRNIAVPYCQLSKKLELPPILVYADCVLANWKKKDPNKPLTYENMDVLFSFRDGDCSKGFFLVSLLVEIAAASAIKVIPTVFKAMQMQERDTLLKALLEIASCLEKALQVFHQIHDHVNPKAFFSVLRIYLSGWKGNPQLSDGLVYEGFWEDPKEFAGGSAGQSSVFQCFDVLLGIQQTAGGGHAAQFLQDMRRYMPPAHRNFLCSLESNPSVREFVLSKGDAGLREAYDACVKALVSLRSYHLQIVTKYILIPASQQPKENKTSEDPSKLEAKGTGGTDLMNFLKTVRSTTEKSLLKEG

| EC50 [1] [nM] | EC50 [2] [nM] | Structure (SMILES) |
| --- | --- | --- |
| 200 | 316 | Cc1ccccc1CNc1cc(C(C)CC(=O)O)ccc1N(CC(C)C)C1CCCCC1 (centres unmarked) [Example 23, 3-(4-(cyclohexyl(isobutyl)amino)-3-((2-methylbenzyl)amino)phenyl)butanoic acid] |
| 25.1 | 31.6 | CC(C)CN(CC(C)C)c1ccc(C(C)CC(=O)O)cc1Nc1nc(Cl)ns1 (centres unmarked) [Example 25, 3-(3-((3-chloro-1,2,4-thiadiazol-5-yl)amino)-4-(diisobutylamino)phenyl)butanoic acid] |
| 0.316 | 3.16 | CC(C)CN(c1ccc(C(C)CC(=O)O)cc1Nc1nnc(C(F)(F)F)s1)C1CCCCC1 (centres unmarked) [Example 29, 3-(4-(cyclohexyl(isobutyl)amino)-3-((5-(trifluoromethyl)-1,3,4-thiadiazol-2-yl)amino)phenyl)butanoic acid] |
| 5.01 | 3.98 | CC(C)CN(CC(C)C)c1ccc(C(C)CC(=O)O)cc1Nc1nc(C(F)(F)F)ns1 (centres unmarked) [Example 34, 3-(4-(diisobutylamino)-3-((3-(trifluoromethyl)-1,2,4-thiadiazol-5-yl)amino)phenyl)butanoic acid] |
| 1 | 2 | CC(C)CN(c1ccc([C@@H](C)CC(=O)O)cc1Nc1nc(C(F)(F)F)ns1)C1CCCCC1 [Example 37, (S)-3-(4-(cyclohexyl(isobutyl)amino)-3-((3-(trifluoromethyl)-1,2,4-thiadiazol-5-yl)amino)phenyl)butanoic acid] |
| 1 | 3.98 | CC(C)CN(c1ccc([C@H](C)CC(=O)O)cc1Nc1nc(C(F)(F)F)ns1)C1CCCCC1 [Example 38, (R)-3-(4-(cyclohexyl(isobutyl)amino)-3-((3-(trifluoromethyl)-1,2,4-thiadiazol-5-yl)amino)phenyl)butanoic acid] |
| 1.26 | 12.6 | CC(C)CN(c1ccc([C@@H](C)CC(=O)O)cc1Nc1nc(Cl)ns1)C1CCCCC1 [Example 39, (S)-3-(3-((3-chloro-1,2,4-thiadiazol-5-yl)amino)-4-(cyclohexyl(isobutyl)amino)phenyl)butanoic acid] |
| 0.631 | 6.31 | CC(C)CN(c1ccc([C@H](C)CC(=O)O)cc1Nc1nc(Cl)ns1)C1CCCCC1 [Example 40, (R)-3-(3-((3-chloro-1,2,4-thiadiazol-5-yl)amino)-4-(cyclohexyl(isobutyl)amino)phenyl)butanoic acid] |
| 10 | 63.1 | CC(C)CN(CC(C)C)c1ccc([C@@H](C)CC(=O)O)cc1Nc1nc(Cl)ns1 [Example 41, (S)-3-(3-((3-chloro-1,2,4-thiadiazol-5-yl)amino)-4-(diisobutylamino)phenyl)butanoic acid] |
| 7.94 | 39.8 | CC(C)CN(CC(C)C)c1ccc([C@H](C)CC(=O)O)cc1Nc1nc(Cl)ns1 [Example 42, (R)-3-(3-((3-chloro-1,2,4-thiadiazol-5-yl)amino)-4-(diisobutylamino)phenyl)butanoic acid] |
| 200 | 158 | Cc1nnc(Nc2cc(C(C)CC(=O)O)ccc2N(CC(C)C)CC(C)C)[nH]1 (centres unmarked) [Example 47, 3-(4-(diisobutylamino)-3-((5-methyl-4H-1,2,4-triazol-3-yl)amino)phenyl)butanoic acid] |
| 25.1 | 63.1 | CC(C)CN(CC(C)C)c1ccc(C(C)CC(=O)O)cc1Nc1nnc(C2CC2)[nH]1 (centres unmarked) [Example 48, 3-(3-((5-cyclopropyl-4H-1,2,4-triazol-3-yl)amino)-4-(diisobutylamino)phenyl)butanoic acid] |
| 0.794 | 3.16 | CC(C)CN(c1ccc([C@H](C)CC(=O)O)cc1Nc1nc(C(F)(F)F)cs1)C1CCCCC1 [Example 49, (R)-3-(4-(cyclohexyl(isobutyl)amino)-3-((4-(trifluoromethyl)thiazol-2-yl)amino)phenyl)butanoic acid] |
| 2.51 | 10 | CC(C)CN(c1ccc([C@H](C)CC(=O)O)cc1Nc1nnc(C2CC2)[nH]1)C1CCCCC1 [Example 50, (R)-3-(4-(cyclohexyl(isobutyl)amino)-3-((5-cyclopropyl-4H-1,2,4-triazol-3-yl)amino)phenyl)butanoic acid] |
| 3.16 | 10 | CC(C)CN(CC(C)C)c1ccc([C@@H](C)CC(=O)O)cc1Nc1nc(C(F)(F)F)ns1 [Example 53, (S)-3-(4-(diisobutylamino)-3-((3-(trifluoromethyl)-1,2,4-thiadiazol-5-yl)amino)phenyl)butanoic acid] |
| 2 | 6.31 | CC(C)CN(CC(C)C)c1ccc([C@H](C)CC(=O)O)cc1Nc1nc(C(F)(F)F)ns1 [Example 54, (R)-3-(4-(diisobutylamino)-3-((3-(trifluoromethyl)-1,2,4-thiadiazol-5-yl)amino)phenyl)butanoic acid] |
